In brackets after ≈: the same amount, converted by molar mass.
Test system: M. tuberculosis H37Rv growth inhibition
Assay: Mycobacterium tuberculosis H37Rv growth inhibition, confirmatory dose response, cytotoxicity (AID 1332);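 further: bacteria incubated 7 days before adding Alamar blue readout reagent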

SMILES	IC90 [µg/mL]
CC(C)COCC(CN(Cc1ccccc1)c1ccccc1)N1CCCC1 (configuration not stated)	11.3 (≈ 30.7 µM)
CCC(C)N1CCC2(CC1)N=c1c(c3c4c5c(C)c(O)c3c(O)c1=NC(=O)/C(C)=C/C=C/[C@H](C)[C@H](O)[C@@H](C)[C@@H](O)[C@@H](C)[C@H](OC(C)=O)[C@H](C)[C@@H](OC)/C=C/O[C@@](C)(O5)C4=O)N2 (some centres not stated)	0.04 (≈ 0.0472 µM)
Oc1c(I)cc(Cl)c2cccnc12	0.482 (≈ 1.58 µM)
Clc1ccccc1C(c1ccccc1)(c1ccccc1)n1ccnc1	5.36 (≈ 15.6 µM)
CCN(CC)CCOc1ccc(/C(=C(/Cl)c2ccccc2)c2ccccc2)cc1	6.13 (≈ 15.1 µM)
Clc1ccc(COC(Cn2ccnc2)c2ccc(Cl)cc2Cl)c(Cl)c1 (configuration not stated)	1.82 (≈ 4.38 µM)
CC[C@@]1([C@@H]2O[C@@H]([C@H]3O[C@@](O)(CO)[C@H](C)C[C@@H]3C)C[C@@H]2C)CC[C@H]([C@]2(C)CC[C@]3(C[C@H](O)[C@@H](C)[C@@H]([C@@H](C)[C@@H](OC)[C@H](C)C(=O)O)O3)O2)O1	4.12 (≈ 6.15 µM)
C=C1C(=O)O[C@@H]2[C@H]3O[C@]3(C)CC/C=C(\C)CC[C@@H]12	1.43 (≈ 5.76 µM)
CCCCC(CC)CN1CN(CC(CC)CCCC)CC(C)(N)C1 (configuration not stated)	6.85 (≈ 20.2 µM)
CC1=CC(=O)c2ccccc2C1=O	5.38 (≈ 31.2 µM)
N[C@@H](C(=O)N[C@@H]1C(=O)N2C(C(=O)O)=C(Cl)CS[C@H]12)c1ccccc1	11.3 (≈ 30.6 µM)
COc1cccc2c1C(=O)c1c(O)c3c(c(O)c1C2=O)C[C@@](O)(C(C)=O)C[C@@H]3O[C@H]1C[C@H](N)[C@H](O)[C@H](C)O1	0.169 (≈ 0.32 µM)
CCCCCCC[N+](CC)(CC)CCCCc1ccc(Cl)cc1	15.6
C[n+]1cc2c3c(ccc2c2ccc4cc5c(cc4c21)OCO5)OCO3	7.62
CCCCC(CC)CN=C(N)NC(N)=NCCCCCCN=C(N)NC(N)=NCC(CC)CCCC (configuration not stated)	0.729 (≈ 1.43 µM)
O=C(Nc1ccc([N+](=O)[O-])cc1Cl)c1cc(Cl)ccc1O	0.076 (≈ 0.232 µM)
CC(NCCC(c1ccccc1)c1ccccc1)c1ccccc1 (configuration not stated)	8.02 (≈ 25.4 µM)
OC(c1cc(C(F)(F)F)nc2c(C(F)(F)F)cccc12)C1CCCCN1 (configuration not stated)	4.16 (≈ 11 µM)
CC(C)(C)c1ccc(C(O)CCCN2CCC(C(O)(c3ccccc3)c3ccccc3)CC2)cc1 (configuration not stated)	1.61 (≈ 3.42 µM)
CC[C@H](CO)NCCN[C@H](CC)CO	0.191 (≈ 0.935 µM)
Nc1ccc(S(=O)(=O)Nc2nccs2)cc1	1.3 (≈ 5.08 µM)
CNCCC=C1c2ccccc2CCc2ccccc21	16.8 (≈ 63.6 µM)
CN(C)CC/C=C1\c2ccccc2Sc2ccc(Cl)cc21	3.93 (≈ 12.4 µM)
O=C(O)c1cn(C2CC2)c2cc(N3CCNCC3)c(F)cc2c1=O	0.042 (≈ 0.127 µM)
CC/C(=C(\c1ccccc1)c1ccc(OCCN(C)C)cc1)c1ccccc1	13.6 (≈ 36.7 µM)
CO[C@H]1/C=C/O[C@@]2(C)Oc3c(C)c(O)c4c(O)c(c(/C=N/N5CCN(C)CC5)c(O)c4c3C2=O)NC(=O)/C(C)=C\C=C\[C@H](C)[C@H](O)[C@@H](C)[C@@H](O)[C@@H](C)[C@H](OC(C)=O)[C@@H]1C	0.04 (≈ 0.0486 µM)
CN1CCN(CCCN2c3ccccc3Sc3ccc(C(F)(F)F)cc32)CC1	2.77 (≈ 6.8 µM)
